Experiments:
[1] = system: S. aureus Newman; assay: Bliss interaction score (quartile over a dose matrix) (fitness difference); higher = more antagonism (negative = synergy)
Outline: (§1)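 The Bliss score takes observed fitness and subtracts the expected fitness, calculated as a product of single-drug fitness values. Those single-drug values were inferred from the combination data. Fitness is OD595 at entry into stationary phase divided by the plate's robust no-drug mean, capped at 1, and the score is summarised by quartiles across technical, biological and donor/recipient replicates.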

[2] = system: S. aureus DSM 20231; assay: as above
Outline: as §1

[3] = system: B. subtilis 168; assay: as above
Outline: as §1

[4] = system: S. pneumoniae D39V; assay: as above
Outline: as §1

[5] = system: S. aureus Newman; assay: fitness (endpoint OD595 vs no drug) (fraction); higher = more growth
Outline: (§2)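 Each well of a 384-well plate received 30 µl of culture at OD595 0.01, or 55 µl for S. pneumoniae. TSB, LB Lennox or CY served as media at 37 °C. OD595 was taken every 30 min for 14 h and corrected by subtracting the first reading. Fitness is the optical density at stationary-phase entry divided by the robust mean of no-drug controls, capped at 1.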

[6] = system: S. aureus DSM 20231; assay: as above
Outline: as §2

[7] = system: B. subtilis 168; assay: as above
Outline: as §2

[8] = system: S. pneumoniae D39V; assay: as above
Outline: as §2
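For Bliss interaction score (quartile over a dose matrix) in this document: first quartile when negative (synergy) and third quartile when positive (antagonism).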

CCC[C@@H]1C[C@@H](C(=O)N[C@@H]([C@H]2O[C@H](SC)[C@H](O)[C@@H](O)[C@H]2O)[C@H](C)Cl)N(C)C1 [Clindamycin] + COc1cccc2c1C(=O)c1c(O)c3c(c(O)c1C2=O)C[C@@](O)(C(=O)CO)C[C@@H]3O[C@H]1C[C@H](N)[C@H](O)[C@H](C)O1 [Doxorubicin]
Conditions | Bliss interaction score
[1] | 0.168
[2] | 0.075
[3] | 0.0474
[4] | -0.0723

fitness
Conditions | partner 0.25 µg/mL | partner 0.5 µg/mL | partner 0.625 µg/mL | partner 1 µg/mL | partner 1.25 µg/mL | partner 2.5 µg/mL
[5], first compound 0.0312 µg/mL | – | – | 0.641 | – | 0.684 | 0.666
[5], first compound 0.125 µg/mL | – | – | 0.202 | – | 0.204 | 0.136
[6], first compound 0.125 µg/mL | – | – | 0.0581 | – | 0.0433 | 0.0502
[7], first compound 0.0625 µg/mL | – | – | 0.496 | – | 0.482 | 0.394
[7], first compound 0.125 µg/mL | – | – | 0.363 | – | 0.408 | 0.3
[7], first compound 0.25 µg/mL | – | – | 0.347 | – | 0.364 | 0.214
[8], first compound 0.0125 µg/mL | 0.671 | 0.697 | – | 0.759 | – | –
[8], first compound 0.015 µg/mL | 0.751 | 0.746 | – | 0.649 | – | –
[8], first compound 0.025 µg/mL | 0.41 | 0.375 | – | 0.439 | – | –
[8], first compound 0.03 µg/mL | 0.588 | 0.576 | – | 0.495 | – | –
[8], first compound 0.05 µg/mL | 0.115 | 0.104 | – | 0.131 | – | –
[8], first compound 0.06 µg/mL | 0.299 | 0.288 | – | 0.256 | – | –

fitness, [7], one replicate
Conditions | first compound 0.0039 µg/mL | first compound 0.0078 µg/mL | first compound 0.0156 µg/mL
partner 0.625 µg/mL | 0.952 | 0.832 | 0.818
partner 1.25 µg/mL | ≥ 1 | 0.858 | 0.793
partner 2.5 µg/mL | ≥ 1 | 0.851 | 0.852

CCC[C@@H]1C[C@@H](C(=O)N[C@@H]([C@H]2O[C@H](SC)[C@H](O)[C@@H](O)[C@H]2O)[C@H](C)Cl)N(C)C1 [Clindamycin] + C[C@@H]1O[C@@H]1P(=O)(O)O [Fosfomycin]
Conditions | Bliss interaction score
[1] | -0.253
[2] | -0.075
[3] | 0.0321
[4] | 0.11

Conditions | fitness
[5], first compound 0.0312 µg/mL, partner 0.781 µg/mL | 0.322
[5], first compound 0.0312 µg/mL, partner 1.562 µg/mL | 0.0838
[5], first compound 0.0312 µg/mL, partner 3.124 µg/mL | 0.0458
[5], first compound 0.0625 µg/mL, partner 0.781 µg/mL | 0.0719
[5], first compound 0.0625 µg/mL, partner 1.562 µg/mL | 0.0192
[5], first compound 0.0625 µg/mL, partner 3.124 µg/mL | 0.0091
[5], first compound 0.125 µg/mL, partner 0.781 µg/mL | 0.0513
[5], first compound 0.125 µg/mL, partner 1.562 µg/mL | 0.0428
[5], first compound 0.125 µg/mL, partner 3.124 µg/mL | 0.0521
[6], first compound 0.0312 µg/mL, partner 1.562 µg/mL | 0.292
[6], first compound 0.0312 µg/mL, partner 3.124 µg/mL | 0.104
[6], first compound 0.0625 µg/mL, partner 0.781 µg/mL | 0.122
[6], first compound 0.0625 µg/mL, partner 1.562 µg/mL | 0.0594
[6], first compound 0.0625 µg/mL, partner 3.124 µg/mL | 0.0236
[6], first compound 0.125 µg/mL, partner 0.781 µg/mL | 0.0473
[6], first compound 0.125 µg/mL, partner 1.562 µg/mL | 0.048
[6], first compound 0.125 µg/mL, partner 3.124 µg/mL | 0.0437
[7], first compound 0.0625 µg/mL, partner 1.562 µg/mL | 0.493
[7], first compound 0.0625 µg/mL, partner 3.124 µg/mL | 0.419
[7], first compound 0.0625 µg/mL, partner 6.248 µg/mL | 0.208
[7], first compound 0.125 µg/mL, partner 1.562 µg/mL | 0.311
[7], first compound 0.125 µg/mL, partner 3.124 µg/mL | 0.234
[7], first compound 0.125 µg/mL, partner 6.248 µg/mL | 0.129
[7], first compound 0.25 µg/mL, partner 1.562 µg/mL | 0.226
[7], first compound 0.25 µg/mL, partner 3.124 µg/mL | 0.183
[7], first compound 0.25 µg/mL, partner 6.248 µg/mL | 0.095
[8], first compound 0.0125 µg/mL, partner 1.25 µg/mL | 0.805
[8], first compound 0.0125 µg/mL, partner 2.5 µg/mL | 0.752
[8], first compound 0.0125 µg/mL, partner 5 µg/mL | 0.66
[8], first compound 0.015 µg/mL, partner 1.25 µg/mL | 0.787
[8], first compound 0.015 µg/mL, partner 2.5 µg/mL | 0.773
[8], first compound 0.015 µg/mL, partner 5 µg/mL | 0.736
[8], first compound 0.025 µg/mL, partner 1.25 µg/mL | 0.539
[8], first compound 0.025 µg/mL, partner 2.5 µg/mL | 0.497
[8], first compound 0.025 µg/mL, partner 5 µg/mL | 0.475
[8], first compound 0.03 µg/mL, partner 1.25 µg/mL | 0.621
[8], first compound 0.03 µg/mL, partner 2.5 µg/mL | 0.583
[8], first compound 0.03 µg/mL, partner 5 µg/mL | 0.525
[8], first compound 0.05 µg/mL, partner 1.25 µg/mL | 0.224
[8], first compound 0.05 µg/mL, partner 2.5 µg/mL | 0.203
[8], first compound 0.05 µg/mL, partner 5 µg/mL | 0.207
[8], first compound 0.06 µg/mL, partner 1.25 µg/mL | 0.368
[8], first compound 0.06 µg/mL, partner 2.5 µg/mL | 0.355
[8], first compound 0.06 µg/mL, partner 5 µg/mL | 0.291

fitness, [7], one replicate
Conditions | first compound 0.0039 µg/mL | first compound 0.0078 µg/mL | first compound 0.0156 µg/mL
partner 1.562 µg/mL | 0.7 | 0.637 | 0.556
partner 3.124 µg/mL | 0.633 | 0.564 | 0.51
partner 6.248 µg/mL | 0.55 | 0.549 | 0.45

CCC[C@@H]1C[C@@H](C(=O)N[C@@H]([C@H]2O[C@H](SC)[C@H](O)[C@@H](O)[C@H]2O)[C@H](C)Cl)N(C)C1 [Clindamycin] + C[n+]1ccc(-c2cc[n+](C)cc2)cc1 [Paraquat]
Conditions | Bliss interaction score
[1] | -0.112
[2] | -0.0477
[3] | 0.0483
[4] | 0.0554

fitness
Conditions | partner 1.25 µg/mL | partner 1.5 µg/mL | partner 2.5 µg/mL | partner 3 µg/mL | partner 5 µg/mL | partner 6 µg/mL
[5], first compound 0.0312 µg/mL | 0.607 | – | 0.57 | – | 0.516 | –
[5], first compound 0.0625 µg/mL | 0.271 | – | 0.241 | – | 0.207 | –
[5], first compound 0.125 µg/mL | 0.0526 | – | 0.0427 | – | 0.0913 | –
[6], first compound 0.0625 µg/mL | 0.181 | – | 0.192 | – | 0.14 | –
[6], first compound 0.125 µg/mL | 0.0613 | – | 0.113 | – | 0.0771 | –
[7], first compound 0.0625 µg/mL | 0.607 | – | 0.513 | – | 0.512 | –
[7], first compound 0.125 µg/mL | 0.392 | – | 0.366 | – | 0.359 | –
[7], first compound 0.25 µg/mL | 0.363 | – | 0.352 | – | 0.281 | –
[8], first compound 0.0125 µg/mL | – | 0.744 | – | 0.749 | – | 0.733
[8], first compound 0.025 µg/mL | – | 0.489 | – | 0.482 | – | 0.458
[8], first compound 0.05 µg/mL | – | 0.24 | – | 0.228 | – | 0.195

fitness, one replicate
Conditions | first compound 0.0039 µg/mL | first compound 0.0078 µg/mL | first compound 0.015 µg/mL | first compound 0.0156 µg/mL | first compound 0.03 µg/mL | first compound 0.06 µg/mL
[7], partner 1.25 µg/mL | ≥ 1 | 0.914 | – | 0.847 | – | –
[7], partner 2.5 µg/mL | 0.958 | 0.846 | – | 0.857 | – | –
[7], partner 5 µg/mL | 0.972 | 0.873 | – | 0.83 | – | –
[8], partner 1.5 µg/mL | – | – | 0.934 | – | 0.85 | 0.692
[8], partner 3 µg/mL | – | – | 0.949 | – | 0.92 | 0.763
[8], partner 6 µg/mL | – | – | ≥ 1 | – | 0.914 | 0.805

CCC[C@@H]1C[C@@H](C(=O)N[C@@H]([C@H]2O[C@H](SC)[C@H](O)[C@@H](O)[C@H]2O)[C@H](C)Cl)N(C)C1 [Clindamycin] + Cc1cc(NS(=O)(=O)c2ccc(N)cc2)no1 [Sulfamethoxazol]
Conditions | Bliss interaction score
[1] | 0.0865
[2] | -0.0287
[3] | -0.0677
[4] | -0.0442

fitness
Conditions | partner 1 µg/mL | partner 2 µg/mL | partner 4 µg/mL
[5], first compound 0.0312 µg/mL | 0.757 | – | –
[5], first compound 0.125 µg/mL | 0.149 | – | –
[6], first compound 0.0625 µg/mL | 0.0971 | 0.0985 | 0.0862
[6], first compound 0.125 µg/mL | 0.0349 | 0.0282 | 0.0345
[7], first compound 0.0625 µg/mL | 0.571 | 0.544 | 0.579
[7], first compound 0.125 µg/mL | 0.422 | 0.395 | 0.431
[7], first compound 0.25 µg/mL | 0.33 | 0.321 | 0.332
[8], first compound 0.0125 µg/mL | 0.687 | 0.711 | 0.739
[8], first compound 0.025 µg/mL | 0.462 | 0.443 | 0.45
[8], first compound 0.05 µg/mL | 0.206 | 0.191 | 0.219

one replicate
Conditions | fitness
[5], first compound 0.0312 µg/mL, partner 8 µg/mL | 0.896
[5], first compound 0.0625 µg/mL, partner 8 µg/mL | 0.934
[5], first compound 0.125 µg/mL, partner 8 µg/mL | 0.709
[7], first compound 0.0039 µg/mL, partner 1 µg/mL | ≥ 1
[7], first compound 0.0039 µg/mL, partner 2 µg/mL | ≥ 1
[7], first compound 0.0039 µg/mL, partner 4 µg/mL | ≥ 1
[7], first compound 0.0078 µg/mL, partner 1 µg/mL | 0.884
[7], first compound 0.0078 µg/mL, partner 2 µg/mL | 0.853
[7], first compound 0.0078 µg/mL, partner 4 µg/mL | 0.868
[7], first compound 0.0156 µg/mL, partner 1 µg/mL | 0.866
[7], first compound 0.0156 µg/mL, partner 2 µg/mL | 0.981
[7], first compound 0.0156 µg/mL, partner 4 µg/mL | 0.907
[7], first compound 0.0625 µg/mL, partner 0.5 µg/mL | 0.666
[7], first compound 0.125 µg/mL, partner 0.5 µg/mL | 0.466
[7], first compound 0.25 µg/mL, partner 0.5 µg/mL | 0.363
[8], first compound 0.015 µg/mL, partner 1 µg/mL | 0.873
[8], first compound 0.015 µg/mL, partner 2 µg/mL | 0.914
[8], first compound 0.015 µg/mL, partner 4 µg/mL | 0.812
[8], first compound 0.03 µg/mL, partner 1 µg/mL | 0.783
[8], first compound 0.03 µg/mL, partner 2 µg/mL | 0.777
[8], first compound 0.03 µg/mL, partner 4 µg/mL | 0.717
[8], first compound 0.06 µg/mL, partner 1 µg/mL | 0.64
[8], first compound 0.06 µg/mL, partner 2 µg/mL | 0.69
[8], first compound 0.06 µg/mL, partner 4 µg/mL | 0.621
